From article PMC7139405, “Real-Time 3D Imaging and Inhibition Analysis of Various Amyloid Aggregations Using Quantum Dots” (International Journal of Molecular Sciences, 2020)

Columns and labels:
Amyloid β (Aβ42) = target: T1, Amyloid β (Aβ42) (Homo sapiens, UniProt P05067); assay: aggregation inhibition of isolated peptide, quantum-dot fluorescence imaging (MSHTS); format: biochemical
T1 construct: gene APP
Description: aggregation inhibition of isolated peptide, quantum-dot fluorescence imaging (MSHTS) on Amyloid β (Aβ42) | RA inhibited the aggregation of Aβ and α-synuclein proteins in vitro in a dose-dependent manner

α-synuclein = target: T2, α-synuclein (Homo sapiens, UniProt P37840); assay: aggregation inhibition of purified protein, quantum-dot fluorescence imaging (MSHTS); format: biochemical
T2 construct: gene SNCA

T1 sequence (P05067 672-713): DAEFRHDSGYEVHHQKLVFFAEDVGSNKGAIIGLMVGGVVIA

O=C(/C=C/c1ccc(O)c(O)c1)O[C@H](Cc1ccc(O)c(O)c1)C(=O)O [RA, rosmarinic acid]
EC50 (Amyloid β (Aβ42)): 20.6 µM | EC50 (α-synuclein): 2.1 µM
